Laboratory results from patent publication US20210186947A1, “TOMM6-INTERACTING EXTRACTS AND COMPOUNDS FOR USE IN THE TREATMENT AND PROPHYLAXIS OF NERVOUS SYSTEM DISEASES, ATHEROSCLEROSIS, HEPATITIS B INFECTION AND HUMAN PAPILLOMA VIRUS (HPV) INFECTION” (ETH ZURICH, priority 2018, published 2021).

Key:
[1] = system: HBsAg (hepatitis B virus major surface antigen); experiment: HBsAg aggregation in yeast, immunoblot detection of HBsAg; format: cell-based; conditions: alizarin 10 microg/ml and 1 microg/ml (FIG. 16D)
Source text: Recombinant HBsAg cDNA (synthesized by GeneScript, Piscataway, N.J., USA) was inserted into the expression vector p42K-TEF (D3011001-1 Dualsystems Biotech AG, Zurich). Yeast transformants were selected in the presence of G418 in the yeast growth medium (YPD; Bacto-yeast extract 10 g/L, Bacto-peptone 20 g/L and D-Glucose […]). Yeast (Saccharomyces cerevisae) strain INVSc1 was used (Invitrogen GmbH, Nr. C810-00). After 3-4 days of cultivation to allow for protein expression, yeast cells were harvested by centrifugation, followed by washing with ice-cold PBS. The yeast cell pellet was immediately frozen at −70° C. Proteins were extracted for 30 min. at 4° C. with solubilization buffer (1% sodium deoxycholate, 0.1% SDS, 0.1% NP40, 5 mM EDTA, 50 mM Tris, pH 8.0) supplemented with protease/phosphatase inhibitors (Cat. No. P8349, and/or PPC1010, Sigma-Aldrich, St. Louis, Mo., USA). […] Protein were separated by urea-containing SDS-PAGE (7.5-10%) under reducing conditions, transferred to PVDF membranes by electrophoretic protein transfer in a tank transfer cell (Mini Trans-Blot cell, Bio-Rad GmbH, Munchen, Germany), and transferred HBsAg proteins were detected in immunoblot with HBsAg-specific antibodies raised in rabbit against an N-terminal epitope of HBsAg, or by a monoclonal HBsAg antibody produced in mouse (SAB4700767, Sigma-Aldrich, St. Louis, Mo., USA). […]

[2] = target: T1, Tomm6 (Mitochondrial import receptor subunit TOMM6 homolog) (Mus musculus, UniProt Q9CQN3); experiment: Identification of Compound-1-interacting hippocampal proteins by co-migration in SDS-PAGE and nano-LC-ESI-MS/MS; format: binding, Tg2576 mice; conditions: solubilisate of hippocampal proteins supplemented with 10 microM Compound-1
T1 construct: hippocampi were isolated from 5-10 aged Tg2576 mice, pulverized under liquid nitrogen and solubilized; from tissue; host or cells: hippocampus of Tg2576 mice
Experimental: To isolate Compound-1-interacting hippocampal proteins, hippocampi were isolated from 5-10 aged Tg2576 mice, pulverized under liquid nitrogen and solubilized for 30 min at 4° C. in solubilization buffer (1% sodium deoxycholate, 0.05% SDS, 0.05% Tween 20 in PBS, pH 7.4, supplemented with protease inhibitors). Insoluble material was removed by centrifugation. The supernatant was diluted 1:5 in PBS (supplemented with protease inhibitors). To this solubilisate, Compound-1 was added at a concentration of 10 μM. Buffer exchange into 20 mM Tris pH 7.4 was performed by centrifugation over Amicon Ultra Centrifugal Filter Units (MWCO 3 kDa; EMD Millipore Merck KGaA, Darmstadt, Germany). The concentrated proteins were dissolved in Laemmli sample buffer (Bio-Rad GmbH, Munchen, Germany) supplemented with mercaptoethanol (355 mM) and subjected to 8% SDS-PAGE under reducing conditions. Compound-1-interacting proteins were identified by co-migration, protein bands were cut and subjected to nano-LC-ES-MS/MS (performed by Proteome Factory AG, Berlin, Germany). Proteins were identified using MS/MS ion search of the Mascot search engine (Matrix Science, London, England) and nr protein database (National Center for Biotechnology Information, Bethesda, MD). […]

T1 sequence (Q9CQN3 whole entry): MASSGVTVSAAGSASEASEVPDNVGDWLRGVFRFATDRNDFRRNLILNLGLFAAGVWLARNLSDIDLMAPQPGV

Compound: O=C1c2ccccc2C(=O)c2c1ccc(O)c2O [Compound-1, 1,2-dihydroxyanthraquinone]
- aggregation and assembly of HBsAg [1]: inhibited the aggregation and assembly of HBsAg
- interaction with Tomm6 (co-migration) [2]: major Compound-1-interacting protein
